Data published in patent publication US10350211B2, “Bumped kinase inhibitor compositions and methods for treating cancer” (UNIVERSITY OF WASHINGTON, priority 2015, dated 2019).

Assays:
PKD = conditions: cited from earlier work
[1] = cited from earlier work
[2] = therapeutic levels cannot be obtained in vivo; cited from earlier work
[3] = system: prostate cancer AR− as well as AR+ lines; conditions: cited from earlier work
[4] = system: other human kinases beyond PKDs, including mutated Src; conditions: cited from earlier work
MDA231 cell = assay: Breast cancer cell proliferation, MDA231; assay type: cell-based; conditions: 72 hours; tested at 0.2, 2, and 20 μM, concentration of the values not given
Protocol: (§1) MCF7 and MDA231 cell lines were plated at 2000 and 1000 cells/well, respectively. 24 hours later, BKI inhibitor of the disclosure was added to each well at concentrations of 0.2, 2, and 20 μM. After 72 hours, […] was used to measure cell growth.

MCF7 cell = assay: Breast cancer cell proliferation, MCF7; assay type: cell-based; conditions: 72 hours; tested at 0.2, 2, and 20 μM, concentration of the values not given
Protocol: as §1

PCa tumor = conditions: 60 mg/kg, 2× daily; cited from earlier work

Structure (SMILES)	MDA231 cell inhibition (%) (MDA231 cell)	MCF7 cell inhibition (%) (MCF7 cell)	other results
CC(C)(C)n1nc(-c2cccc3ccccc23)c2c(N)ncnc21 [Example 1NA-PP1]	–	–	PKD kinase activity (PKD): potently blocked; solubility [1]: low solubility; metabolism [2]: quickly metabolized; prostate cancer cell growth/proliferation [3]: potently blocked; off-target kinases [4]: target other human kinases beyond PKDs, including mutated Src
CC(C)(C)n1nc(Cc2cccc3ccccc23)c2c(N)ncnc21 [Example 1NM-PP1]	–	–	PKD kinase activity (PKD): potently blocked; solubility [1]: low solubility; metabolism [2]: quickly metabolized; prostate cancer cell growth/proliferation [3]: potently blocked; off-target kinases [4]: target other human kinases beyond PKDs, including mutated Src
CN1CCC(Cn2nc(-c3ccc4cc(OC5CC5)ccc4c3)c3c(N)ncnc32)CC1 [Example 4, 3-(6-Cyclopropoxynaphthalen-2-yl)-1-((1-methylpiperidin-4-yl)methyl)-1H-pyrazolo[3,4-d]pyrimidin-4-amine]	60%	50%	–
CCOc1ccc2cc(-c3nn(CC4CCN(C)CC4)c4ncnc(N)c34)ccc2n1 [Example 15, 3-(2-Ethoxyquinolin-6-yl)-1-((1-methylpiperidin-4-yl)methyl)-1H-pyrazolo[3,4-d]pyrimidin-4-amine]	30%	40%	–
CN1CCC(Cn2nc(-c3ccc4nc(OCC(F)(F)F)ccc4c3)c3c(N)ncnc32)CC1 [Example 16, 1-((1-Methylpiperidin-4-yl)methyl)-3-(2-(2,2,2-trifluoroethoxy)quinolin-6-yl)-1H-pyrazolo[3,4-d]pyrimidin-4-amine]	90%	50%	–
CC(C)(O)Cn1nc(-c2ccc3nc(OC4CC4)ccc3c2)c2c(N)ncnc21 [Example 25, 1-(4-Amino-3-(2-cyclopropoxyquinolin-6-yl)-1H-pyrazolo[3,4-d]pyrimidin-1-yl)-2-methylpropan-2-ol]	20%	30%	–
CCOc1ccc2ccc(-c3nn(CC4CCNCC4)c4ncnc(N)c34)cc2c1 [Example 51, 3-(7-ethoxynaphthalen-2-yl)-1-(piperidin-4-ylmethyl)-1H-pyrazolo[3,4-d]pyrimidin-4-amine]	95%	97%	–
CC(C)(O)Cn1cc(-c2ccc3nc(OC4CC4)ccc3c2)c2c(N)ncnc21 [Example 58, 1-(4-amino-5-(2-cyclopropoxyquinolin-6-yl)-7H-pyrrolo[2,3-d]pyrimidin-7-yl)-2-methylpropan-2-ol]	10%	50%	–
Nc1ncnc2c1c(-c1ccc3nc(OC4CC4)ccc3c1)nn2CC1(CO)COC1 [Example 67, (3-((4-amino-3-(2-cyclopropoxyquinolin-6-yl)-1H-pyrazolo[3,4-d]pyrimidin-1-yl)methyl)oxetan-3-yl)methanol]	0%	40%	–
CCOc1ccc2cc(-c3nn(C4CCN(CC)CC4)c4ncnc(N)c34)ccc2c1 [Example 109, 3-(6-ethoxynaphthalen-2-yl)-1-(1-ethylpiperidin-4-yl)-1H-pyrazolo[3,4-d]pyrimidin-4-amine]	50%	50%	–
CCOc1ccc2cc(-c3nn(C(C)C)c4ncnc(N)c34)ccc2n1 [Example 110, 3-(2-ethoxyquinolin-6-yl)-1-isopropyl-1H-pyrazolo[3,4-d]pyrimidin-4-amine]	10%	30%	–
CCOc1ccc2cc(-c3nn(C4CCNCC4)c4ncnc(N)c34)ccc2c1 [Example 111, 3-(6-ethoxynaphthalen-2-yl)-1-(piperidin-4-yl)-1H-pyrazolo[3,4-d]pyrimidin-4-amine]	90%	70%	–
CCOc1ccc2cc(-c3nc(CC4CCNCC4)n4ccnc(N)c34)ccc2c1 [Example 120, 1-(6-ethoxynaphthalen-2-yl)-3-(piperidin-4-ylmethyl)imidazo[1,5-a]pyrazin-8-amine]	50%	30%	–
CCOc1ccc2cc(-c3nn(CC4CCNCC4)c4ncnc(N)c34)ccc2n1 [Example 127, 3-(2-ethoxyquinolin-6-yl)-1-(piperidin-4-ylmethyl)-1H-pyrazolo[3,4-d]pyrimidin-4-amine]	0%	50%	–
CCOc1ccc2cc(-c3nn(CC4CCN(C)CC4)c4ncnc(N)c34)ccc2c1 [Example 128]	50%	40%	–
CCCOc1ccc2cc(-c3nn(CC4CCNCC4)c4ncnc(N)c34)ccc2c1 [Example 129, 1-(piperidin-4-ylmethyl)-3-(6-propoxynaphthalen-2-yl)-1H-pyrazolo[3,4-d]pyrimidin-4-amine]	90%	75%	–
CC(C)Oc1ccc2cc(-c3nn(CC4CCNCC4)c4ncnc(N)c34)ccc2c1 [Example 130, 3-(6-isopropoxynaphthalen-2-yl)-1-(piperidin-4-ylmethyl)-1H-pyrazolo[3,4-d]pyrimidin-4-amine]	80%	30%	–
Fc1ccc(Cl)cc1-c1nc(Nc2ccncc2)c2nccnc2n1 [SD-208]	–	–	PCa tumor growth (PCa tumor): decrease in PCa tumor growth; PKD kinase activity (PKD): potently blocked; prostate cancer cell growth/proliferation [3]: potently blocked
